pEC50: −log10 of the molar value.
Tested on: Hepatitis C virus
Test: Antiviral activity against HCV by viral replicon assay
Assay type: functional, organism-based, Hepacivirus hominis

SMILES: CC(C)(C)C(=O)SCCOP(=O)(OCCSC(=O)C(C)(C)C)OC[C@H]1O[C@@H](n2cc3cc[nH]c3nc2=O)[C@H](O)[C@@H]1O
- pEC50: 4.22

Source: ChEMBL document CHEMBL1139784, “Design and evaluation of a potential mutagen for Hepatitis C virus” (Bioorg Med Chem Lett, 2007)
